Test results published in patent publication US7968602B2, “4-[(E)-2-(5,6,7,8-tetrahydro-5,5,8,8-tetramethyl-2-napthalenyl)-1-propenyl]benzoic acid analogs and method of manufacture and use thereof” (Wisconsin Alumni Research Foundation, priority 2005, dated 2011).
“Also recorded” adds a separate entry of the source.

Key:
RXRgamma = biological target: T1, RXRgamma (Mus musculus, UniProt P28705); experiment: Nuclear RXR competition binding assay ([3H]-9-cis-RA, hydroxylapatite); set-up: species or system murine; settings: for competition binding to RXRs: compared with 4-HPTTNPB, studies 'may be performed'
T1 construct: made in house; host or cells: insect cells infected with baculovirus expression vectors; nuclear extracts
T1 sequence (P28705 1-463): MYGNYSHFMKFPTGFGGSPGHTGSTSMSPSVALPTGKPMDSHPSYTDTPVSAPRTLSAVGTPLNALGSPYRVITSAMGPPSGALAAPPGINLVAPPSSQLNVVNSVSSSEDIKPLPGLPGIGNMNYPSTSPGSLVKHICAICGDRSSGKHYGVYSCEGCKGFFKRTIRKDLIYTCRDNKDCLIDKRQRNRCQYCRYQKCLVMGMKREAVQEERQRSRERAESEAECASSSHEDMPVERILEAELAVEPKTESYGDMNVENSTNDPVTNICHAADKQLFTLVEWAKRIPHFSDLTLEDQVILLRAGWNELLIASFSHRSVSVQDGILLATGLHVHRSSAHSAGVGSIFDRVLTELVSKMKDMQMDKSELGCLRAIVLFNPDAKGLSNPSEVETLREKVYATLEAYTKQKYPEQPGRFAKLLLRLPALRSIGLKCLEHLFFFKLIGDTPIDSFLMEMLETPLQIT
Method: Nuclear Retinoid Receptor (RAR/RXR) Binding. Competition of retinoids with [^3H]-all-trans-RA for binding to RARalpha, RARbeta and RARgamma and with [^3H]-9-cis-RA for binding to RXRgamma was determined using an in vitro ligand binding assay. […] Radiolabeled ligands were added to receptor-containing extracts in the absence and presence of increasing concentrations of competing ligands followed by separating ligand bound to the receptor from that free in solution using a hydroxylapatite (HAP) assay.

MCF-7 cells [1] = experiment: Cell growth inhibition assay; format: cell-based, human; settings: for cell growth inhibition, MCF-7: compared with 4-HPTTNPB, assays 'may be performed'; for response of MCF-7 cells (live cells / cell death): single treatment, 72 hours
Method: (§1) Cell growth inhibition and TUNEL assays. […] The cells were plated at 50,000 cells/well in 12-well plates. The wells were dosed with varying amounts of retinoid compounds. At cell harvest, propidium iodide was added. Half of the cells were used to determine the number of live and dead cells after adding fluorescein diacetate, which yields a fluorescent product upon cleavage by metabolically active cells. The other half were fixed in 4% paraformaldehyde, dried on aminosilane coated slides and used to determine TUNEL and propidium iodide staining.
Cell culture. The human mammary carcinoma cell line, MCF-7, may be obtained from the American Type Culture Collection (Mannassas, Va.). MCF-7 cells may be maintained in DMEM (Sigma-Aldrich) medium supplemented with 4 g/L glucose, 3.7 g/L sodium bicarbonate and 10% fetal calf serum.
Assay for cell growth inhibition. Cells are plated in flasks/wells of a tissue culture dish. After 24 hours, cells are dosed with a compound of the present invention at varying concentrations, and after 72 hours, the cells are removed from flasks/plates and counted. Fluorescence (due to staining of cells with fluorescein diacetate) was used to count the number of live cells. Phase-contrast microscopy is used to count the total number of cells.

[2] = tested on: DMBA-induced mammary tumors; experiment: Inhibition of DMBA-induced mammary tumors; format: in vivo; settings: studies 'may be performed'
pregnant rats = experiment: Assessment of compound teratogenicity; format: in vivo; settings: for teratogenic activity / fetal malformations: 0.66 micomoles/kg single oral bolus at E9.25, fetuses at E21.5
Method: Assessment of Compound Teratogenicity. Female rats (Harlan Sprague-Dawley, Madison, Wis. approximately 200 to 250 g in weight) were maintained on normal laboratory rat chow and mated with normal rats of the same strain. Pregnant rats were given a single oral bolus dose of compound dissolved in Wesson® corn oil. Each dose was 60-100 μL. The doses were given at day 9.25. Each […] was maintained under standard laboratory conditions until euthanasia at embryonic day 21.5. The fetuses were removed. Fetuses with a heartbeat were determined to be alive. The number of live and dead fetuses were recorded. The number of resorption sites was also recorded. The live fetuses were examined for gross external malformations. All animals were maintained in accordance with protocol approved by the University of Wisconsin-Madison animal care committee.

[3] = tested on: T2, RARalpha, RARbeta and RARgamma; experiment: Nuclear RAR competition binding assay ([3H]-all-trans-RA, hydroxylapatite); set-up: species or system human RARalpha and RARgamma, murine RARbeta; settings: for competition with [3H]-all-trans-RA for binding to the RARs: RAR types alpha, beta and gamma, stated collectively; for competition binding to RARs: compared with 4-HPTTNPB, studies 'may be performed'
T2 construct: fused on or other part: RARalpha was expressed as a fusion protein in E. coli
Method: Nuclear Retinoid Receptor (RAR/RXR) Binding. Competition of retinoids with [^3H]-all-trans-RA for binding to RARalpha, RARbeta and RARgamma and with [^3H]-9-cis-RA for binding to RXRgamma was determined using an in vitro ligand binding assay. (See Clagett-Dame et al., Methods for generating and characterizing retinoid receptors from E. coli and insect cell expression systems, Meth. Enzymol., 282:13-14 (1997)). Recombinant human RARalpha was expressed as a fusion protein in E. coli (see Repa J J et al., All-trans retinol is a ligand for the retinoic acid receptors, Proc Natl Acad Sci USA, 90:7293-7297 (1993)). […] Radiolabeled ligands were added to receptor-containing extracts in the absence and presence of increasing concentrations of competing ligands followed by separating ligand bound to the receptor from that free in solution using a hydroxylapatite (HAP) assay.

MCF-7 cells [4] = experiment: TUNEL assay (DNA fragmentation); format: cell-based, human; settings: for induction of apoptosis / DNA fragmentation: MCF-7 cells, 72 hours, 4-HPTTNPB and 4-HBTTNPB at the highest doses; for activity in DNA fragmentation study: compared with 4-HPTTNPB, studies 'may be performed'
Method: as §1

[5] = tested on: F9-RARE-lacZ reporter cell line; experiment: F9 reporter gene assay; format: cell-based; settings: for potency in activating the reporter system compared with atRA and TTNPB: versus atRA and TTNPB
Text: Reporter gene assay. […] Data were normalized for total protein using the method set forth in Bradford M M, Anal Biochem, 72:248-254 (1976).

[6] = TTNPB: at concentrations above 10^-6 M, 4-HPTTNPB and 4-HPR: at the highest concentration

| competition with [3H]-9-cis-RA for binding to RXRgamma (RXRgamma; [6]) | SMILES | competition binding to RXRs (RXRgamma) | response of MCF-7 cells (live cells / cell death) (MCF-7 cells [1]) | toxicity in DMBA-induced mammary tumor studies [2] | competition with [3H]-all-trans-RA for binding to the RARs [3] | competition binding to RARs [3] | induction of apoptosis / DNA fragmentation (MCF-7 cells [4]) | cell growth inhibition, MCF-7 (MCF-7 cells [1]) | further results |
| --- | --- | --- | --- | --- | --- | --- | --- | --- | --- |
|  | C/C(=C\c1ccc(C(=O)Cc2ccc(O)cc2)cc1)c1ccc2c(c1)C(C)(C)CCC2(C)C [4-HBTTNPB, E-4-[2-methyl-2-(1,1,4,4-tetramethyl-1,2,3,4-tetrahydronapth-7-yl)-vinyl]-phenyl-2′-(4′-hydroxyphenyl)-1′-ethanone] | only slight binding competition | dose-dependent decrease | little, if any, toxicity | competed poorly | bind only very weakly | very active |  | cell growth inhibition, MCF-7 (MCF-7 cells [1]; listed as 23): inhibits growth of MCF-7 cells in a dose-dependent manner; teratogenic activity / fetal malformations (pregnant rats): devoid of any observable teratogenic activity; teratogenic potential / embryotoxicity (pregnant rats; 'the data will demonstrate'): little, if any, observable embrotoxicity; number of dead and resorbed fetuses compared with vehicle group (pregnant rats; rat, in vivo, po): did not differ; activity in DNA fragmentation study (MCF-7 cells [4]): activity similar to 4-HPTTNPB |
| almost no competition | CC1=C(/C=C/C(C)=C/C=C/C(C)=C/C(=O)Nc2ccc(O)cc2)C(C)(C)CCC1 [4-HPR, N-(4-hydroxyphenyl) retinamide, reference compound] |  | cell death |  | only weak competition |  | high degree of apoptosis |  | potency in activating the reporter system compared with atRA and TTNPB [5]: approximately 1000 fold less potent; potency of competition for RAR binding compared with TTNPB ([3]; versus TTNPB): 3-4 orders of magnitude less potent |
|  | CCCc1cc2c(cc1/C(C)=C/c1ccc(C(=O)Nc3ccc(O)cc3)cc1)C(C)(C)CCC2(C)C [Compound 12, E-4-[2-methyl-2-(6-propyl-1,1,4,4-tetramethyl-1,2,3,4-tetrahydronapth-7-yl)-vinyl]-benzoic acid 4-hydroxyanilide] | only slight binding competition |  |  |  | bind only very weakly |  | inhibits growth of MCF-7 cells in a dose-dependent manner |  |
|  | C/C(=C\c1ccc(C(=O)Cc2ccc(OC3OC(C(=O)O)C(O)C(O)C3O)cc2)cc1)c1ccc2c(c1)C(C)(C)CCC2(C)C (stereo not shown) [Compound 25] | no better at binding to RXRs than 4-HPTTNPB |  | little, if any, toxicity |  | only slightly better at binding to RARs than 4-HPTTNPB |  | inhibits growth of MCF-7 cells in a dose-dependent manner; also recorded: less active than 4-HPTTNPB | teratogenic potential / embryotoxicity (pregnant rats; 'the data will demonstrate'): little, if any, observable embrotoxicity; activity in DNA fragmentation study (MCF-7 cells [4]): less active than 4-HPTTNPB |
|  | C/C(=C\c1ccc(C(=O)Cc2ccc(O[C@@H]3O[C@H](CO)[C@@H](O)[C@H](O)[C@H]3O)cc2)cc1)c1ccc2c(c1)C(C)(C)CCC2(C)C [Compound 33, E-4-[2-methyl-2-(1,1,4,4-tetramethyl-1,2,3,4-tetrahydronaphth-7-yl)-vinyl]-phenyl-2′-(4′-beta-D-glucopyranosyloxyphenyl)-1′-ethanone] | no better at binding to RXRs than 4-HPTTNPB |  | little, if any, toxicity |  | only slightly better at binding to RARs than 4-HPTTNPB |  | inhibits growth of MCF-7 cells in a dose-dependent manner | teratogenic potential / embryotoxicity (pregnant rats; rat, in vivo): little, if any, observable embrotoxicity |
| very effective | C=C(c1ccc(C(=O)O)cc1)c1cc2c(cc1C)C(C)(C)CCC2(C)C [LGD1069, reference compound] |  |  |  |  |  |  |  |  |
| very weak competition | C/C(=C\c1ccc(C(=O)O)cc1)c1ccc2c(c1)C(C)(C)CCC2(C)C [TTNPB, E-4-[2-methyl-2-(1,1,4,4-tetramethyl-1,2,3,4-tetrahydronapth-7-yl)-vinyl]-benzoic acid, reference compound] |  | nearly ineffective |  | very effective |  | ineffective |  | competition with [3H]-9-cis-RA for binding to RXRgamma (RXRgamma; at 10^-4.5 M): 44%; activity in the F9 reporter assay (beta-galactosidase) [5]: highly active |
|  | CC1=C(/C=C/C(C)=C/C=C/C(C)=C/C(=O)O)C(C)(C)CCC1 [atRA, all-trans retinoic acid, reference compound] |  |  |  |  |  |  |  | activity in the F9 reporter assay (beta-galactosidase) [5]: highly active |

| SMILES | competition with [3H]-9-cis-RA for binding to RXRgamma (RXRgamma; [6]) | competition binding to RXRs (RXRgamma) | response of MCF-7 cells (live cells / cell death) (MCF-7 cells [1]) | toxicity in DMBA-induced mammary tumor studies [2] | competition with [3H]-all-trans-RA for binding to the RARs [3] | competition binding to RARs [3] | induction of apoptosis / DNA fragmentation (MCF-7 cells [4]) | cell growth inhibition, MCF-7 (MCF-7 cells [1]) | further results |
| --- | --- | --- | --- | --- | --- | --- | --- | --- | --- |
| C/C(=C\c1ccc(C(=O)Nc2ccc(O)cc2)cc1)c1ccc2c(c1)C(C)(C)CCC2(C)C [4-HPTTNPB, E-4-[2-methyl-2-(1,1,4,4-tetramethyl-1,2,3,4-tetrahydronapth-7-yl)-vinyl]-benzoic acid 4-hydroxyanilide] | almost no competition |  | dose-dependent decrease |  | competed poorly; also recorded: did not show any significant binding |  | very active |  | potency in activating the reporter system compared with atRA and TTNPB [5]: around 100 fold less potent; teratogenic activity / fetal malformations (pregnant rats): all profoundly malformed; percentage of the fetuses at embryonic day 21.5 either dead or resorbed (pregnant rats; 0.66 micomoles/kg single oral bolus at E9.25, three pregnant rats): > 80% |
